# Laboratory results published in patent US20230278972A1, “SUBSTITUTED HALOALKYL SULFONANILIDE HERBICIDES” (FMC Corporation, priority 2020, published 2023).
# Columns and labels:
# Type in all cases: in vivo
# [1] = tested on: Pigweed, Palmer (palmer amaranth, palmer pigweed, Amaranthus palmeri); test: Test A1 postemergence, Pigweed, Palmer; conditions: for Plant response rating, Pigweed, Palmer: Postemergence; for Pigweed, Palmer plant response rating: postemergence
# Procedure, shortened: (§1)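 Plants grown in pots of loam/sand mix; preemergence = soil-directed spray on seeded pots, postemergence = spray at 1–2 leaves, height 2–10 cm; test chemicals formulated in non-phytotoxic solvent with surfactant.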
# [2] = tested on: goosegrass (Eleusine indica); test: Test A1 postemergence, goosegrass; conditions: for Plant response rating, Goosegrass: Postemergence; for Goosegrass plant response rating: postemergence
# Procedure, shortened: (§2)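 Herbicidal response was scored on plants treated either preemergence, by directed spray onto soil of a loam–sand blend after sowing, or postemergence on potted plants at the one- to two-leaf stage, 2–10 cm high. Test chemicals were carried in a non-phytotoxic solvent mix with surfactant.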
# [3] = tested on: ragweed (common ragweed, Ambrosia artemisiifolia); test: Test A1 postemergence, ragweed; conditions: for Plant response rating, Ragweed: Postemergence; for Ragweed plant response rating: postemergence
# Procedure, shortened: as §1
# [4] = tested on: ragweed (common ragweed, Ambrosia artemisiifolia); test: Test A1 preemergence, ragweed
# Procedure, shortened: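 Test compounds were formulated in a non-phytotoxic solvent mixture containing a surfactant. For preemergence, seeds sown in a loam soil–sand blend received a directed soil spray. For postemergence, potted plants in the same soil, 2 to 10 cm tall at the one- to two-leaf stage, were sprayed.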
# [5] = tested on: galium (catchweed bedstraw, Galium aparine); test: Test A1 postemergence, galium; conditions: for Plant response rating, Galium: Postemergence; for Galium plant response rating: postemergence
# Procedure, shortened: as §2
# [6] = 31 g ai/ha, 0 to 100 scale (0 no effect, 100 complete control), 10 days
# [7] = 31 g ai/ha, 0 to 100 scale (0 no effect, 100 complete control)
# [8] = 125 g ai/ha, 0 to 100 scale, 0 no effect, 100 complete control
# [9] = 125 g ai/ha, 0 to 100 scale (0 no effect, 100 complete control), 10 days
SMILES,"Plant response rating, Pigweed, Palmer [1, 6]","Plant response rating, Pigweed, Palmer ([1]; 125 g ai/ha, 0 to 100 scale)","Plant response rating, Goosegrass [2, 6]","Plant response rating, Goosegrass ([2]; 125 g ai/ha, 0 to 100 scale)","Plant response rating, Ragweed [3, 6]","Plant response rating, Ragweed ([3]; 125 g ai/ha, 0 to 100 scale)","Plant response rating, Ragweed [4, 7]","Plant response rating, Ragweed [4, 8]","Plant response rating, Galium [5, 6]","Plant response rating, Galium ([5]; 125 g ai/ha, 0 to 100 scale)","Pigweed, Palmer plant response rating [1, 7]","Goosegrass plant response rating [2, 7]","Ragweed plant response rating [3, 7]","Galium plant response rating [5, 7]","Plant response rating, Pigweed, Palmer [1, 9]","Plant response rating, Goosegrass [2, 9]","Plant response rating, Ragweed [3, 9]","Plant response rating, Galium [5, 9]"
Cc1c(NS(=O)(=O)C(F)(F)F)cc(C(=O)N2CC(C)OC(C)C2)c(C)c1C (stereo not drawn) [Compound 328],30,40,20,80,40,70,10,80,80,100,,,,,,,,
Cc1cc(F)c(NS(=O)(=O)C(F)(F)F)cc1C1=NOC2(CCCC2)C1 [Compound 303],0,20,0,70,30,80,0,0,60,90,,,,,,,,
CCOC(=O)N(c1cc(C(=O)N2C[C@@H](C)O[C@H](C)C2)c(C)c(C)c1C)S(=O)(=O)C(F)(F)F (relative stereo) [Compound 374],,30,,90,,80,0,70,,80,10,0,60,60,,,,
Cc1cc(Br)c(NS(=O)(=O)C(F)(F)F)cc1C1=NOC2(CCCC2)C1 [Compound 309],0,20,0,30,0,50,0,20,40,80,,,,,,,,
CCC1ON=C(c2cc(N(C(=O)OCC(C)C)S(=O)(=O)C(F)(F)F)c(C)cc2C)C1CC (stereo not drawn) [Compound 348],0,70,0,30,10,60,0,10,60,80,,,,,,,,
"Cc1cc(C)c(N(COC(=O)C(C)(C)C)S(=O)(=O)C(F)(F)F)cc1C1=NOC2CCCCCC12 (single isomer, unassigned) [Compound 294]",10,30,0,30,30,80,0,30,60,70,,,,,,,,
Cc1c(NS(=O)(=O)C(F)(F)F)cc(C(=O)N2CCC(F)CC2)c(C)c1C [Compound 358],0,40,0,80,80,80,40,80,70,100,,,,,,,,
CCOC(=O)N(c1cc(C(=O)N2CCOCC2)c(C)c(C)c1C)S(=O)(=O)C(F)(F)F [Compound 325],30,90,0,90,0,70,50,90,40,90,,,,,,,,
CCC1ON=C(c2cc(N(COC(=O)C(C)(C)C)S(=O)(=O)C(F)(F)F)c(C)cc2C)C1CC (stereo not drawn) [Compound 347],20,50,0,40,40,70,0,0,30,100,,,,,,,,
Cc1cc(C)c(N(COC(=O)C(C)(C)C)S(=O)(=O)C(F)(F)F)cc1N1CCC2(CCC(C)CC2)C1=O (stereo not drawn) [Compound 401],,,,,,,0,10,,,0,0,60,50,30,90,90,80
Cc1cc(C(F)(F)F)c(C2=NOC3CCCC23)cc1NS(=O)(=O)C(F)(F)F (stereo not drawn) [Compound 306],0,40,0,80,0,70,0,10,60,80,,,,,,,,
"Cc1c(NS(=O)(=O)C(F)(F)F)cc(C(=O)N2CCOCC2)c(C)c1C [Compound 289, 1,1,1-Trifluoro-N-[2,3,4-trimethyl-5-(4-morpholinylcarbonyl)phenyl]methanesulfonamide]",10,60,40,70,70,80,0,60,60,80,,,,,,,,
Cc1c(C(=O)N2C[C@@H](C)O[C@H](C)C2)cc(N(COC(=O)C(C)(C)C)S(=O)(=O)C(F)(F)F)c(C)c1C (relative stereo) [Compound 373],,10,,70,,80,50,50,,70,0,0,50,50,,,,
Cc1cc(F)c(C2=NOC3CCCC23)cc1NS(=O)(=O)C(F)(F)F (stereo not drawn) [Compound 310],0,0,0,0,0,30,0,20,0,0,,,,,,,,
COc1cc(C)c(C2=NOC3(CCCC3)C2)cc1NS(=O)(=O)C(F)(F)F [Compound 304],0,0,0,0,0,30,0,50,0,0,,,,,,,,
COc1cnn(-c2cc(NS(=O)(=O)C(F)(F)F)c(C)cc2C)c(=O)c1OC [Compound 282],0,0,20,80,60,70,0,20,,0,,,,,,,,
Cc1cc(C)c(N(C(=O)OCC(C)C)S(=O)(=O)C(F)(F)F)cc1C1=NOC2CCCC12 (stereo not drawn) [Compound 299],10,10,30,40,40,70,0,30,40,60,,,,,,,,
"CCOC(=O)N(c1cc(C(=O)N2CCCCC2)c(C)c(C)c1C)S(=O)(=O)C(F)(F)F [Compound 330, Ethyl N-[(trifluoromethyl)sulfonyl]-N-[2,3,4-trimethyl-5-(1-piperidinylcarbonyl)phenyl]carbamate]",0,50,0,40,50,80,40,70,50,60,,,,,,,,
Cc1c(NS(=O)(=O)C(F)(F)F)cc(C(=O)N2CCCCC2)c(C)c1C [Compound 326],40,80,0,80,60,80,90,90,70,100,,,,,,,,
Cc1c(NS(=O)(=O)C(F)(F)F)cc(C(=O)N2CCC(C)CC2)c(C)c1C [Compound 366],,20,,80,,80,30,70,,100,10,0,40,50,,,,
CCC1CC(c2cc(NS(=O)(=O)C(F)(F)F)c(C)cc2C)=NO1 (stereo not drawn) [Compound 375],,20,,90,,50,0,20,,20,0,50,0,10,,,,
Cc1c(NS(=O)(=O)C(F)(F)F)cc(C(=O)N2CCC(Cl)CC2)c(C)c1C [Compound 356],0,10,0,70,70,80,0,0,70,100,,,,,,,,
